Calls of active or inactive are those of the source.
Assays:
Bcl-2-like protein 10 = target: T1, Bcl-2-like protein 10 (Homo sapiens, UniProt Q9HD36); assay: Bcl-B/TR3 peptide binding disruption – biochemical, fluorescence polarization, FITC-TR3 peptide, selectivity assay for Bfl-1 inhibitor project, primary screen (AID 748);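 also: fluorescence polarization from a fluorescein-labelled TR3 peptide binding purified Bcl-B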
T1 sequence (Q9HD36 whole entry): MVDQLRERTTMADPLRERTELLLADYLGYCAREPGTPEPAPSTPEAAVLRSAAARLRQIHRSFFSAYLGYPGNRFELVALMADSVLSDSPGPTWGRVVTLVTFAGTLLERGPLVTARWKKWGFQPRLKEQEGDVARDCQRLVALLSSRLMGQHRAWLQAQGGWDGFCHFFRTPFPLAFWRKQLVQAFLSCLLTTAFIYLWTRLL

[1] = fluconazole-exposed Candida albicans growth modulators – fluorescence, retest, confirmation (AID 2467); format: functional, cell-based
[2] = viability of PTEN-deleted HCT116 cells – cell-based, HCT116 PTEN knockout, dose response (AID 1047); format: functional;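 also: HCT116 colon tumor cells with PTEN knocked out; cells exposed to compound for 60 hours before readout; potency for loss of cell viability measured by luminescence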
[3] = viability of HCT116 lacking mutant beta-catenin – cell-based, human colon tumor, dose response (AID 1045); format: functional;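 also: HCT116 colon tumor cells with beta catenin knocked out; cells exposed to compound for 60 hours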
Trypsin = Trypsin (Sus scrofa, UniProt P00761); assay: trypsin protease activity blockade – biochemical, quenched peptide fluorescence, cherry-pick, selectivity assay for Rce1 protease inhibitor project, dose response (AID 488789)
[4] = NIH-3T3 fibroblast cytotoxicity, dose response, cytotoxicity control, cell-based, fluorescence, Alamar Blue, secondary assay (AID 2327); format: functional;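 also: NIH-3T3 mouse fibroblasts cultured with fluconazole at 8 µg/mL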
[5] = Luminescence Cell-Based Dose Response HTS to Identify Activators of Luciferase Translation or Activity in H4 […] Cells. [Related pubchem assays: 1829 (Project Summary), 1814 (Primary HTS)]; format: functional
[6] = Luminescence Cell-Based Dose Confirmation HTS to Identify Activators of 5'UTR Stem-Loop Driven Alpha-Synuclein mRNA Translation in H4 Neuroglioblastoma Cells. [Related pubchem assays: 1829 (Project Summary), 1814 (Primary HTS)]; format: functional
H4 = assay: Luminescence Cell-Based Dose Response HTS to Identify Activators of 5'UTR Stem-Loop Driven Prion Protein mRNA Translation in H4 Neuroglioblastoma Cells. [Related pubchem assays: 1829 (Project Summary), 1814 (Primary HTS)]; format: functional; details: Homo sapiens
[7] = target: Glyceraldehyde-3-phosphate dehydrogenase (Homo sapiens, UniProt P04406)
[8] = target: T2, Rac GTPase-activating protein 1 (Homo sapiens, UniProt Q9H0H5); assay: blockers of MgcRacGAP-driven Rac1 GTP hydrolysis – biochemical, ADP Hunter fluorescence, primary and confirmatory, confirmation (AID 624330); format: functional
T2 sequence (Q9H0H5 whole entry): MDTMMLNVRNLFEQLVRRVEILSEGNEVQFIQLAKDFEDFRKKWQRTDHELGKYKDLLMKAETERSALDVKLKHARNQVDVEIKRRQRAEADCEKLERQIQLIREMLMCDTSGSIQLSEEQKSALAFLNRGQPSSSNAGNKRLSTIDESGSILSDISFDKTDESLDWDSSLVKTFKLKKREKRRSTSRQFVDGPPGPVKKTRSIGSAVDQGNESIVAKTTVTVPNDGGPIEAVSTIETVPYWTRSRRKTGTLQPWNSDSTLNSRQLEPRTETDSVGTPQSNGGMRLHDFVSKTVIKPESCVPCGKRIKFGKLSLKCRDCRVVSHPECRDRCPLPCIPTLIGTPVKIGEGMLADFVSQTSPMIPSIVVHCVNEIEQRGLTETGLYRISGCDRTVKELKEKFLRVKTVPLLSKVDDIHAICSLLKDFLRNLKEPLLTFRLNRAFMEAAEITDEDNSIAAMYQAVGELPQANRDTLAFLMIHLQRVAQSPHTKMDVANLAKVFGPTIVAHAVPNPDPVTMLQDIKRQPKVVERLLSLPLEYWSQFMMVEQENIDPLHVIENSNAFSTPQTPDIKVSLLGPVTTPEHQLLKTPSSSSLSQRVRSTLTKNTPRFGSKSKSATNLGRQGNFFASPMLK

[9] = M. tuberculosis H37Rv growth inhibitors, H37Rv strain (AID 1626); format: functional
[10] = target: T3, Calpain-2 catalytic subunit (Sus scrofa, UniProt P43367); assay: m-calpain protease blockers, concentration series – biochemical, fluorogenic peptide substrate, dose response (AID 1420); format: functional
T3 sequence (P43367 whole entry): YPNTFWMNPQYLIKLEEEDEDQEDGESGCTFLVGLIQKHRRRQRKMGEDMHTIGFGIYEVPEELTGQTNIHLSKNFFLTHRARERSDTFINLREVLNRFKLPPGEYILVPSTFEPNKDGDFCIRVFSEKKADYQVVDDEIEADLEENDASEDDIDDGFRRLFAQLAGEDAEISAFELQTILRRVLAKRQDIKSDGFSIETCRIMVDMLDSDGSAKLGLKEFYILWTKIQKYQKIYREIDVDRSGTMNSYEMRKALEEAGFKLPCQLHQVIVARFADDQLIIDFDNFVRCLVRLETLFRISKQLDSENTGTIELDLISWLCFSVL

CAAX prenyl protease 2 = target: T4, CAAX prenyl protease 2 (Saccharomyces cerevisiae S288c, UniProt Q03530); format: biochemical
T4 sequence (Q03530 whole entry): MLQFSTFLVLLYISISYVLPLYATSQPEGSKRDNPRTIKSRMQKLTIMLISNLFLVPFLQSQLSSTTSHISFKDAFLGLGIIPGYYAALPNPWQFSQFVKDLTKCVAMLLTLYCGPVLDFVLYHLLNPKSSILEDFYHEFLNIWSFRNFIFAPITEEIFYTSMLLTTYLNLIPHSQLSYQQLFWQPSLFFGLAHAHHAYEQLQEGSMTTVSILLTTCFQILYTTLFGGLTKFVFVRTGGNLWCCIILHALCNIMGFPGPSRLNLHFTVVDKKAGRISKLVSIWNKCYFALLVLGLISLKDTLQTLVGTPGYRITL

[11] = target: T5, Tyrosine-protein phosphatase non-receptor type 7 (Homo sapiens, UniProt P35236); assay: redox-active compounds inhibiting HePTP phosphatase – biochemical, fluorescence, mechanism study (AID 2068); format: functional
T5 sequence (P35236 whole entry): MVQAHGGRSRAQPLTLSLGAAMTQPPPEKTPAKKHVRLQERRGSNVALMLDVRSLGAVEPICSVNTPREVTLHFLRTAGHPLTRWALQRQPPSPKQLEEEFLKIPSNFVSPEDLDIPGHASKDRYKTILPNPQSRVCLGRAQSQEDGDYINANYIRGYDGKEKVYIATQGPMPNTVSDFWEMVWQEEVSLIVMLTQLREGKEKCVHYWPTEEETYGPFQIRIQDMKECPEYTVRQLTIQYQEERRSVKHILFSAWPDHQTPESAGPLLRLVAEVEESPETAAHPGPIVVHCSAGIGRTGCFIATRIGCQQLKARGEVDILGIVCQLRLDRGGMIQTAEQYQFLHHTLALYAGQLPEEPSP

Trypsin, sequence (P00761 whole entry): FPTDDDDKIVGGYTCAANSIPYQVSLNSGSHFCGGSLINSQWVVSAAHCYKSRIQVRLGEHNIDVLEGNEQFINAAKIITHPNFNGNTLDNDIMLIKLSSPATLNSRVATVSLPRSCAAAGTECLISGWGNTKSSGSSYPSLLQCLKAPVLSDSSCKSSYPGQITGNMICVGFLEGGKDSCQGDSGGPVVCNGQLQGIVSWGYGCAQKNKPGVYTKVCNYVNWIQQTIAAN
Glyceraldehyde-3-phosphate dehydrogenase, sequence (P04406 whole entry): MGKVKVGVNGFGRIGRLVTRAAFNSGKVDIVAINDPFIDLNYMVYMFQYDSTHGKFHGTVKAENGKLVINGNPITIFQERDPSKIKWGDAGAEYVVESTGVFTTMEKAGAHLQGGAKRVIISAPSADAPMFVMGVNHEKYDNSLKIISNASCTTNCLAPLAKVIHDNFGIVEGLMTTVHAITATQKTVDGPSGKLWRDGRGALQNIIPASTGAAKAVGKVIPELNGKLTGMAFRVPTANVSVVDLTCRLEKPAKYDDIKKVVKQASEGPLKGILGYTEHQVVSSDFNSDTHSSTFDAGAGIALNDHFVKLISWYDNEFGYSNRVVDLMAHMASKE

COc1ccc(Nc2cc(C)nc3nc(C)nn23)cc1Cl
IC50 (Bcl-2-like protein 10): > 100 µM (inactive)

O=C(COc1ccccc1)Nc1cccc(-c2nc3cc4ccccc4cc3[nH]2)c1
EC50 [1]: 1.64 µM (active) | EC50 [2]: 11.8 µM (active) | EC50 [3]: 12.1 µM (active) | AC50 (Trypsin): 5.74 µM (active) | EC50 [4]: 7.43 µM (active)

O=C(CCN1CCc2ccccc21)c1ccc2c(c1)OCCO2
IC50 (Bcl-2-like protein 10): 59.3 µM (inactive) | EC50 [5]: 110 µM (active) | EC50 [6]: 53.2 µM (active) | EC50 (H4): 46.1 µM (active)

O=C1C(Cl)=C(N2CCN(CCOCCO)CC2)C(=O)N1c1cccc(C(F)(F)F)c1
IC50 [7]: > 50 µM (inconclusive)

COc1ccc(NC(C)c2cc(Cl)ccc2O)cc1 (configuration not stated)
IC50 [8]: 69.1 µM (active) | IC50 [9]: > 100 µM (active) | IC50 [10]: 13.9 µM (not active)

COc1cc2cc(C(=O)O)[nH]c2c(OC)c1OC
AC50 (CAAX prenyl protease 2): > 100 µM (inactive) | AC50 (Trypsin): 23 µM (active)

CCCCNC(=O)Nc1ccc2nc(-c3ccco3)c(-c3ccco3)nc2c1
IC50 [11]: 0.452 µM (active)
